Assay results taken from PubChem BioAssay (NCI).
Values joined by “and” are separate entries in the source; they are usually repeats but may differ in a detail not shown here. Equal values may be shown once.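 Test compounds were applied to cells in 96-well plates for 48 hours at 5 doses. GI50 marks 50% less growth. TGI marks complete inhibition of growth.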

What was measured:
Experiment in all cases: growth of human tumour cells (NCI), 48 h
PC-3 prostate = tested on: PC-3 prostate
HCT-15 colon = tested on: HCT-15 colon
SK-MEL-28 melanoma = tested on: SK-MEL-28 melanoma
786-0 renal = tested on: 786-0 renal
MDA-MB-231 breast = tested on: MDA-MB-231 breast
DMS 114 small cell lung = tested on: DMS 114 small cell lung

Compound	GI50 (PC-3 prostate)	TGI (PC-3 prostate)	GI50 (HCT-15 colon)	TGI (HCT-15 colon)	GI50 (SK-MEL-28 melanoma)	TGI (SK-MEL-28 melanoma)	GI50 (786-0 renal)	TGI (786-0 renal)	GI50 (MDA-MB-231 breast)	TGI (MDA-MB-231 breast)	TGI (DMS 114 small cell lung)
CN1CCN(c2ccc(Nc3ncc4cc(C#N)c(=O)n(C5CCCC5)c4n3)cc2)CC1	0.611 µM	> 23.2 µM	0.94 µM	> 100 µM	3.54 µM	> 100 µM	0.693 µM	4.11 µM	–	–	–
C=C1CC[C@@H](C(C)C)C[C@@H]2[C@H]([C@H](O)C[C@]2(C)O)[C@@]2(C)CC[C@@H]1O2	–	–	14.6 µM	27.7 µM	–	–	18.8 µM	33.4 µM	13.9 µM	28 µM	–
Nc1ccc2[nH]cc(CCC(=O)O)c2c1	–	> 100 µM	–	> 100 µM	–	> 100 µM	–	> 100 µM	–	> 100 µM	–
O=C(N/N=C/c1c(Cl)cccc1Cl)c1ccc(C(F)(F)F)nc1Nc1cccc(C(F)(F)F)c1	0.767 µM	> 21.1 µM	0.437 µM	> 100 µM	1.82 µM	> 37.5 µM	0.856 µM	3.25 µM	1.51 µM	11.1 µM	–
O=C(NO)c1ccc(CN(c2cnccn2)c2cnccn2)cc1	11.7 µM	31.4 µM	18.5 µM	46.8 µM	11 µM	36.4 µM	15.7 µM	35 µM	22.3 µM	63.4 µM	–
Cc1ccc(Nc2nnc(-c3ccc4c(c3)OCO4)o2)c(C)c1	–	> 100 µM	–	> 100 µM	–	> 100 µM	–	> 100 µM	–	> 100 µM	–
CCCCCc1ccc(S(=O)(=O)Nc2cc(-c3csc(NC(C)=O)n3)ccc2N2CCN(C)CC2)cc1	2.23 µM	7.72 µM	1.08 µM	4.49 µM	3.46 µM	7.49 µM	4.9 µM	11.1 µM	4.75 µM	9.91 µM	–
Cc1ccc(S(=O)(=O)NC(=O)NC2=NC(C)(C)N(c3ccc(Cl)c(Cl)c3)C(N)=N2)cc1	–	> 100 µM	–	> 100 µM	–	> 100 µM	–	> 100 µM	–	> 100 µM	–
S=C1SC2=Nc3ccccc3CN2C2=NCCN12	> 100 µM	> 100 µM	33 µM	> 100 µM	> 100 µM	> 100 µM	> 100 µM	> 100 µM	> 100 µM	> 100 µM	–
CCCCCCCCCCN1CCC(N2CCCCC2)CC1	2 µM	13 µM	1.38 µM	3.73 µM	1.78 µM	3.41 µM	2.82 µM	15.9 µM	1.3 µM	3.26 µM	–
O=C(Nc1ccc(Cl)c(Cl)c1)Nc1ccccc1O	3.09 µM	27.9 µM	4.46 µM	23.9 µM	12.5 µM	27.3 µM	25.2 µM	75.1 µM	10 µM	34.2 µM	–
O=c1[nH]c(=O)n([C@H]2CCCO2)cc1F	–	> 5000 µM	1050 µM	> 5000 µM	1040 µM	> 5000 µM	1780 µM	> 5000 µM	–	> 5000 µM	–
Cc1cc(C)n(-c2nnc3n2N=C(c2ccc(-c4ccccc4)cc2)CS3)n1	3.15 µM	> 100 µM	3.51 µM	> 100 µM	3.33 µM	> 100 µM	3.95 µM	> 100 µM	3.22 µM	> 100 µM	–
Clc1cc(Cl)cc(Nc2ccc3cc(OCCCN4CCOCC4)ccc3n2)c1	–	–	1.47 µM	4.15 µM	–	–	1.58 µM	3.11 µM	1.81 µM	4.27 µM	–
Cn1c(=O)c2c(ncn2CC(=O)Nc2ccc(-c3ccccc3)nn2)n(C)c1=O	> 100 µM	> 100 µM	> 100 µM	> 100 µM	> 100 µM	> 100 µM	> 100 µM	> 100 µM	23.1 µM	> 100 µM	–
COC(C(=O)[C@@H](O)[C@@H](C)O)[C@@H]1Cc2cc3cc(O[C@H]4C[C@@H](O[C@H]5C[C@@H](O)[C@H](O)C(C)O5)[C@H](O)C(C)O4)c(C)c(O)c3c(O)c2C(=O)[C@H]1O[C@H]1C[C@@H](O[C@H]2C[C@@H](O[C@H]3C[C@@H](O)[C@H](OC)C(C)O3)[C@@H](O)C(C)O2)[C@H](O)C(C)O1 (some centres not stated)	0.0317 µM	> 33.3 µM	0.272 µM	> 33.3 µM	0.00946 µM	0.0647 µM	0.0313 µM	> 26.9 µM	0.0691 µM	> 33.3 µM	–
O=C(CSC(c1ccccc1)c1ccccc1)N/N=C/c1ccco1	2.03 µM	9 µM	2.12 µM	4.38 µM	20.8 µM	50.7 µM	1.83 µM	9.05 µM	1.35 µM	2.87 µM	–
COc1ccc2c3c(Nc4ccc(/C(C)=N/O)cc4)[nH]c4ccccc4c-3c(N=O)c2c1	1.52 µM	3.2 µM	1.81 µM	4.56 µM	27 µM	50.6 µM	13.4 µM	28.2 µM	4.8 µM	24.3 µM	–
CCCCCCCCCCCCOC1C(C(CC(=O)NCCN2CCCC2)NS(=O)(=O)c2cc(Cl)cc(Cl)c2)OC2OC(C)(C)OC21 (configuration not stated)	1.64 µM	3.02 µM	1.71 µM	3.18 µM	1.94 µM and 1.59 µM	3.55 µM and 3.1 µM	1.68 µM	3.27 µM	1.81 µM	3.23 µM	–
Nc1nc(N)c2cc(CNc3ccc(C(=O)NC(CC(=O)O)C(=O)O)c(Cl)c3)ccc2n1 (configuration not stated)	< 0.01 µM	> 500 µM	0.05 µM	> 500 µM	–	> 4.64 µM	< 0.01 µM	> 500 µM	–	> 500 µM	0.0214 µM
COc1ccc2c(Oc3ccc(NC(=O)c4c(C)n(CC(C)(C)O)n(-c5ccccc5)c4=O)nc3)ccnc2c1	19.5 µM	> 95.6 µM	6.75 µM	> 100 µM	22.3 µM	> 100 µM	22.3 µM	> 100 µM	8.92 µM	> 93.5 µM	–
CCN(CC)c1cc2oc3cc(N)cc(=N)c-3nc2cc1C	1.73 µM	> 100 µM	3.14 µM	> 100 µM	5.7 µM	27 µM	11.2 µM	70.1 µM	6.04 µM	> 100 µM	–
